What was measured:
[1] = cited from earlier work; for plasma half-life: human volunteers, enantiomers
5-HT 1A = target: T1, 5-HT 1A (Homo sapiens, UniProt P08908); assay: receptor binding screen, 5-HT 1A
T1 sequence (P08908 1-422): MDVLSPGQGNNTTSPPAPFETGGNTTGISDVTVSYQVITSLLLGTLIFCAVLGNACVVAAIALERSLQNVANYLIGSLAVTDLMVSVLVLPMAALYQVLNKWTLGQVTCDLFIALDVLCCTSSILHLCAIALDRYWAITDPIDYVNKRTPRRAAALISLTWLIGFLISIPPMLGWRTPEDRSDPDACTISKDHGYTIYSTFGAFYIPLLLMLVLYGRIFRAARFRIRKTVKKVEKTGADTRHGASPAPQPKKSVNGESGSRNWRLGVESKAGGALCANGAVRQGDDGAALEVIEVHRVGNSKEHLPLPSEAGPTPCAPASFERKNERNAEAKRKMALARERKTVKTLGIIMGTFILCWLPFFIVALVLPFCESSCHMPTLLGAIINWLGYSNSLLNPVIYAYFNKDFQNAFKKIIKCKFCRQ

5-HT7 = 5-HT7 (Homo sapiens, UniProt P34969); assay: receptor binding screen, 5-HT7; conditions: 5-HT7, 10 μM
α2B-adrenergic receptor = target: T2, α2B-adrenergic receptor (Homo sapiens, UniProt P18089); assay: ligand binding screen and equilibrium binding, α2B-adrenergic receptor; conditions: Adrenergic a2B; for inhibition at 10 µM: inhibition of ligand binding; for Ki: equilibrium binding
T2 sequence (P18089 1-450): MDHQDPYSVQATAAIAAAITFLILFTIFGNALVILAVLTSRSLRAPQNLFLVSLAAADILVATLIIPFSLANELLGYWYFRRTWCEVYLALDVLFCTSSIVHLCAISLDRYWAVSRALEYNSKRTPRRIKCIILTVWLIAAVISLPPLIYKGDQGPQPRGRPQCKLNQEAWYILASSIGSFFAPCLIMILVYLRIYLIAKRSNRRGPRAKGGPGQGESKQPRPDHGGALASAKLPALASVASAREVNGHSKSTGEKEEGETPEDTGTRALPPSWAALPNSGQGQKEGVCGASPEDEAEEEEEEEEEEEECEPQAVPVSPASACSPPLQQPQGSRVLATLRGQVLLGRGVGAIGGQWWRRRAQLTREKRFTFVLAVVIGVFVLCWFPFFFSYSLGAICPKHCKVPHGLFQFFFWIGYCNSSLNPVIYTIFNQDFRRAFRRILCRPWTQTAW

Adrenergic a2C = target: T3, Adrenergic a2C (Homo sapiens, UniProt P18825); assay: receptor binding screen, Adrenergic a2C
T3 sequence (P18825 1-462): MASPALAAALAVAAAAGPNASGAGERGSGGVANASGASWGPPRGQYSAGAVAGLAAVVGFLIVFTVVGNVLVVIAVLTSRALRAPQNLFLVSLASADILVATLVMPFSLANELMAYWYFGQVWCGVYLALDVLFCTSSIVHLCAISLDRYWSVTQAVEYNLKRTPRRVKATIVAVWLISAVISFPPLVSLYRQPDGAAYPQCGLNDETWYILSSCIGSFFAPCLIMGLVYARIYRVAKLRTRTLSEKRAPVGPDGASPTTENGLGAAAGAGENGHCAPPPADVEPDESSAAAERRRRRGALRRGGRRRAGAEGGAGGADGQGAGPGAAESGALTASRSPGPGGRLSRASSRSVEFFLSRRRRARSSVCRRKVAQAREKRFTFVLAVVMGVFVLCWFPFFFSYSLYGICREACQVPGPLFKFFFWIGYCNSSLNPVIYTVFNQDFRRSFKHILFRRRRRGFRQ

[2] = hydrochloride or mucate salt form; cited from earlier work
[3] = system: Imidazoline 1 (I1) receptor; assay: Imidazoline I1 receptor radioligand binding assay; set-up: species or system bovine; conditions: for Ki: Imidazoline-1 (I1), equilibrium binding
Description: Evaluation of the Affinity of Compounds for the Peripheral Imidazoline Receptor in Bovine Adrenal Medulla Glands Determined in a Radioligand Binding Assay.
Membrane homogenates of adrenal medulla glands (200 μg protein) are incubated for 60 min at 22° C. with 15 nM [^3H]clonidine in the absence or presence of the test compound in a buffer containing 137 mM NaCl, 2.68 mM KCl, 0.5 mM MgCl2, 8.1 mM Na2HPO4, 1.47 mM KH2PO4, 0.5 mM EGTA, 0.5 mM EDTA, 0.5% ascorbic acid and 0.1% BSA (pH 7.4). It also contains 10 μM RX821002 to block the α2-adrenergic receptors.
Nonspecific binding is determined in the presence of 10 μM rilmenidine.
Following incubation, the samples are filtered rapidly under vacuum through glass fiber filters (GF/B, Packard) presoaked with 0.3% PEI and rinsed several times with ice-cold 50 mM Tris-HCl using a 96-sample cell harvester (Unifilter, Packard). The filters are dried then counted for radioactivity in a scintillation counter (Topcount, Packard) using a scintillation cocktail (Microscint 0, Packard).
The results are expressed as a percent inhibition of the control radioligand specific binding.
The standard reference compound is rilmenidine, which is tested in each experiment at several concentrations to obtain a competition curve from which its IC50 is calculated.
Bibliographic reference: MOLDERINGS, G. J., MOURA, D., FINK, K., BONISCH, H. and GOTHERT, M. (1993), Binding of [3H]clonidine to I1-imidazoline sites in bovine adrenal medullary membranes, Naun.-Sch. Arch. Pharm., 348: 70.

[4] = target: Imidazoline-2 (I2) receptor; assay: central Imidazoline I2 receptor radioligand binding assay; set-up: species or system rat
Description: Evaluation of the Affinity of Compounds for the Central Imidazoline I2 Receptor in the Rat Cerebral Cortex Determined in a Radioligand Binding Assay.
Membrane homogenates of cerebral cortex (1 mg protein) are incubated for 30 min at 22° C. with 2 nM [^3H]idazoxan in the absence or presence of the test compound in a buffer containing 50 mM Tris-HCl (pH 7.4), 0.5 mM EDTA and 3 μM yohimbine.
Nonspecific binding is determined in the presence of 10 μM cirazoline.
Following incubation, the samples are filtered rapidly under vacuum through glass fiber filters (Filtermat B, Wallac) presoaked with 0.3% PEI and rinsed several times with an ice-cold buffer containing 50 mM Tris-HCl and 150 mM NaCl using a 48-sample cell harvester (Mach II, Tomtec). The filters are dried then counted for radioactivity in a scintillation counter (Betaplate 1204, Wallac) using a solid scintillator (Meltilex B/HS, Wallac).
The results are expressed as a percent inhibition of the control radioligand specific binding. The standard reference compound is idazoxan, which is tested in each experiment at several concentrations to obtain a competition curve from which its IC50 is calculated.
Bibliographic reference: BROWN, C. M., MAC KINNON, A. C., McGRATH, J. C., SPEDDING, M. and KILPATRICK A. T. (1990), α2-adrenoceptor subtypes and imidazoline-like binding sites in the rat brain, Brit. J. Pharmacol, 99: 803.

[5] = system: Sigma receptor (non-selective); assay: ligand binding screen, non-selective Sigma receptor; conditions: Sigma (non-select), inhibition of ligand binding
Sigma-1 receptor = Sigma-1 receptor (Homo sapiens, UniProt Q99720); assay: equilibrium binding, Sigma-1 receptor; conditions: Sigma 1, equilibrium binding
Sigma-2 receptor = Sigma-2 receptor (Homo sapiens, UniProt Q5BJF2); assay: equilibrium binding, Sigma-2 receptor; conditions: Sigma 2, equilibrium binding
human TAAR1 receptor = target: T4, human TAAR1 receptor (Homo sapiens, UniProt Q96RJ0); assay: TAAR1 cAMP Biosensor Assay; assay type: cell-based; conditions: for Efficacy: TAAR1 activation, final concentration of 10 μM, free base; for EC50: TAAR1 cAMP accumulation, agonist dose response, mucate salts
T4 sequence (Q96RJ0 1-339): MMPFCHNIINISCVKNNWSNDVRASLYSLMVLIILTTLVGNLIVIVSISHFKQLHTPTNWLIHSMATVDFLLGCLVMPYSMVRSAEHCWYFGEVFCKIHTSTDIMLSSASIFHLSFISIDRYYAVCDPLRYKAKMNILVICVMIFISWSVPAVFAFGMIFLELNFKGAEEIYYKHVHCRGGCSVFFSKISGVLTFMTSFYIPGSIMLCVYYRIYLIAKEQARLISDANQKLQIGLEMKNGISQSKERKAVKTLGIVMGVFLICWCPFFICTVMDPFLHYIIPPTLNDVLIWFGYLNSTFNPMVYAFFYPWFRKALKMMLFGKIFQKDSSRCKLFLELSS
Description: To measure interactions with TAAR1, cell line stably expressing a recombinant human TAAR1 receptor were studied in the cAMP Biosensor Assay (DiscoveRx, Freemont, Calif.) since TAAR1 is coupled to G-proteins that signal through cAMP. The (S)- and (R)-Isometheptene isomers at a final concentration of 10 μM activate TAAR1 differentially, as shown on the table below, wherein (S)-Isometheptene activates more effectively than the R-Isometheptene. These activities may be linked to side-effects of racemic Isometheptene, due to the interaction of S-Isometheptene to the TAAR1 tyramine receptor.
Isometheptene Mucate USP, Isometheptene Mucate isomer 1, Isometheptene Mucate isomer 2 and p-Tyramine (control) in the TAAR1 cAMP Biosensor Assay of FIG. 23 as shown by the following diagrams (A), (B), (C), and (D). The data is shown as an agonist dose response curve, normalized to the maximal and minimal response observed in the presence of control ligand and vehicle respectively
The cAMP Hunter cell line expressing human TAAR1 was expanded from freezer stocks according to standard procedures. Cells were seeded in a total volume of 20 μL into white walled, 384-well microplates and incubated at 37° C. for the appropriate time prior to testing. cAMP modulation was determined using the DiscoveRx HitHunter cAMP XS+ assay. For agonist determination, cells were incubated with sample to induce response. Media was aspirated from cells and replaced with 15 μL 2:1 HBSS/10 mM Hepes:cAMP XS+ Ab reagent. Intermediate dilution of sample stocks was performed to generate 4× sample in assay buffer. 4.5 μL of 4× sample was added to cells and incubated at 37° C. or room temperature for 30 or 60 minutes. Final assay vehicle concentration was 1%. After appropriate compound incubation, assay signal was generated through incubation with 20 μL cAMP XS+ ED/CL lysis cocktail for one hour followed by incubation with 20 μL cAMP XS+ EA reagent for three hours at room temperature. Microplates were read following signal generation with a PerkinElmer Envision™ instrument for chemiluminescent signal detection. Compound activity was analyzed using CBIS data analysis suite (ChemInnovation, CA). For Gs agonist mode assays, percentage activity was calculated using the following formula: % Activity=100%×(mean RLU of test sample−mean RLU of vehicle control)/(mean RLU of MAX control−mean RLU of vehicle control).

Sequence of 5-HT7 (P34969 whole entry, species assumed): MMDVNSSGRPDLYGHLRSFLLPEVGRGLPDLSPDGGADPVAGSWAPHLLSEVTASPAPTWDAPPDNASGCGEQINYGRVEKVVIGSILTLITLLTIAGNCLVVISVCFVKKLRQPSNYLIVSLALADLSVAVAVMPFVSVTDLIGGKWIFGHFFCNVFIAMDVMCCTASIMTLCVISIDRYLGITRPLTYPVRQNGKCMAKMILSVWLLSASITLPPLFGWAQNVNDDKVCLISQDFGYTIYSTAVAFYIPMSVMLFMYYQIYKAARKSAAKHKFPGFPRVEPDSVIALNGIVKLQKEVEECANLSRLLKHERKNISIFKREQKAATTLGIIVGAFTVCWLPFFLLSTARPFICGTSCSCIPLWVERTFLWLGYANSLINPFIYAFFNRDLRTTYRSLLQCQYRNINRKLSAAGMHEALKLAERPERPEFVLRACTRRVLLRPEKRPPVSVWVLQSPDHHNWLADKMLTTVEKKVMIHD
Sequence of Sigma-1 receptor (Q99720 whole entry, species assumed): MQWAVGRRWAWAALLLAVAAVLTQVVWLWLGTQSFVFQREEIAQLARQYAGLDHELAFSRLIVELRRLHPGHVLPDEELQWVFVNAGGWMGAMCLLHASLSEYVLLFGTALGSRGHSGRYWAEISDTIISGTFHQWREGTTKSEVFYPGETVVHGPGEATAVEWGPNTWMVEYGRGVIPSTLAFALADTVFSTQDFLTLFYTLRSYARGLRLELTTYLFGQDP
Sequence of Sigma-2 receptor (Q5BJF2 whole entry, species assumed): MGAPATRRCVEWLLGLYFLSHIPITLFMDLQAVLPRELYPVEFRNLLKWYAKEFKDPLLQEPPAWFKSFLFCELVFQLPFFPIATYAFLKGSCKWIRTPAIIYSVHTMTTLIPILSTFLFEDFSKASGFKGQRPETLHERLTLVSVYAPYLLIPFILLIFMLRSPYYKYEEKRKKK

## CNC(C)Cc1ccc2c(c1)OCO2 (racemic) [MDMA, 3,4-methylenedioxy-N-methylamphetamine]
[1]; given as the racemate
  half-life: around 8 hours

## CNC(C)CCC=C(C)C (racemic) [Racemic, reference compound]
5-HT 1A
  inhibition at 10 µM: 37%
5-HT7
  inhibition at 10 µM: 46%
α2B-adrenergic receptor
  inhibition at 10 µM: 76%
Adrenergic a2C
  inhibition at 10 µM: 41%
[2]
  solubility in water: soluble in water

## CN[C@@H](C)CCC=C(C)C (single isomer, unassigned) [Isomer 1]
5-HT7
  inhibition at 10 µM: 13%
α2B-adrenergic receptor
  Ki: 2.7 µM
  inhibition at 10 µM: 29%
Adrenergic a2C
  inhibition at 10 µM: 0%
[3]; (S) versus (R) enantiomer
  interaction with I1 less avidly than the R-Isometheptene enantiomer: about 60 fold
[3]
  Ki: 1.1 µM
[4]
  Ki: 1.1 µM
  Inhibition @ 10 μM(%): 84%
[5]
  Inhibition @ 10 μM(%): 87%
Sigma-1 receptor
  Ki: 2.1 µM
Sigma-2 receptor
  Ki: 5.2 µM
Human TAAR1 receptor
  Efficacy: 49.4%

## CNC(C)CCC=C(C)C (single isomer, unassigned) [Isomer 2]
5-HT7
  inhibition at 10 µM: 31%
α2B-adrenergic receptor
  Ki: 2.3 µM
  inhibition at 10 µM: 57%
Adrenergic a2C
  inhibition at 10 µM: 0%
[3]; (R) versus (S) enantiomer
  binding to I1 receptor more avidly than the (S)-Isometheptene enantiomer: about 60 fold
[3]
  Ki: 0.018 µM
[4]
  Ki: 1.5 µM
  Inhibition @ 10 μM(%): 86%
[5]
  Inhibition @ 10 μM(%): 86%
Sigma-1 receptor
  Ki: 1.9 µM
Sigma-2 receptor
  Ki: 5.6 µM
Human TAAR1 receptor
  Efficacy: 25.6%

## CN[C@@H](C)CCC=C(C)C (single isomer, unassigned) [Isometheptene Mucate Isomer 1]
Human TAAR1 receptor
  EC50: 21.1 µM

## O=C(O)[C@@H](O)[C@H](O)[C@H](O)[C@@H](O)C(=O)O (single isomer, unassigned) [Isometheptene Mucate Isomer 2]
Human TAAR1 receptor
  EC50: 29.5 µM

## CN[C@H](C)Cc1ccc2c(c1)OCO2 [(R)-MDMA, (R)-3,4-methylenedioxy-N-methylamphetamine]
[1]; 40 mg oral dose in human volunteers
  area under the blood plasma concentration versus time curve (AUC), (R)-MDMA relative to (S)-MDMA: two to four times higher
[1]
  plasma half-life: 5.8 ± 2.2 h

## CN[C@@H](C)Cc1ccc2c(c1)OCO2 [(S)-MDMA]
[1]
  plasma half-life: 3.6 ± 0.9 h
